As usually defined, the Km is the concentration of substrate that gives half-maximal velocity. In general, Vmax refers to the top rate of the reaction or transport when substrate is in excess. The kcat is the maximal rate divided by the concentration of active sites. The term remaining activity denotes what remains of the control signal, in per cent. Usually kcat/Km stands for the second-order rate constant that governs catalysis at low substrate concentration.

Like-named read-outs stand apart in the source and are kept apart here. Non-standard residues stand in square brackets, D forms with d. Residues, ends and D or L forms follow the SMILES beside them. *: point of attachment. Sta = CC(C)C[C@H](N)[C@@H](O)CC(=O)O; Isovaleryl = CC(C)CC(=O)*

The source of these data is US20170166879A1, “NOVEL (R)-HYDROXYNITRILE LYASE” (PUBLIC UNIVERSITY CORPORATION TOYAMA PREFECTURAL UNIVERSITY, priority 2014, published 2017).

Data set [1] addresses T1, R-ChHNL (Chamberlinius hualienensis, UniProt A0A0H5BR52). The experiment in a line: Dynamic (kinetic) analysis, racemic mandelonitrile as substrate (decomposition reaction). Format: biochemical.
Data set [2] deals with T1, R-ChHNL. The experiment in a line: Dynamic (kinetic) analysis, aldehyde substrates, Hanes-Woolf plot. The settings on record: aldehydes other than benzaldehyde; for max S.A. (specific activity) / Km / Vmax / kcat: condition similar to the above-described condition; for relative S.A.: relative to benzaldehyde at pH 5.2 and 22° C.
In data set [3] the target is T1, R-ChHNL. The experiment in a line: Search of inhibitor of R-ChHNL activity (remaining activity). The data set is classed as biochemical.
For data set [4], the system named is Cc1cccc(C=O)c1. Briefly: purified protein, by the assay type. The following applies: other: aldehydes other than benzaldehyde; condition similar to the above-described condition; pH 5.2.
For data set [5], the system named is O=Cc1cccc2ccccc12. Briefly: purified protein, by the assay type. The settings on record: other: aldehydes other than benzaldehyde; condition similar to the above-described condition; pH 5.2.
In data set [6] the test system is Cc1ccc(C=O)cc1. Briefly: purified protein, by the assay type. The settings on record: other: aldehydes other than benzaldehyde; condition similar to the above-described condition; pH 5.2.
The mark [7] stands for this setting: 10 mM, pH 7.0, 20° C., 60 minutes.
Setting [8] is: concentration not given (1 mM or 0.1 mM), pH 7.0, 20° C., 60 minutes.
[9] abbreviates: 1 mM, pH 7.0, 20° C., 60 minutes.
The mark [10] stands for this setting: 1 mM, pH 7.0, 20° C., 60 minutes, read-out: Remaining activity.
Where [11] appears, read: 10 mM, pH 7.0, 20° C., 60 minutes, read-out: Remaining activity.
[12] abbreviates: 100 μg/mL, pH 7.0, 20° C., 60 minutes.

Turning to `N#CC(O)c1ccccc1` (racemic) [racemic mandelonitrile, mandelonitrile], in data set [1], the Michaelis constant (Km) stood at 5.5 mM, the Vmax worked out at 2819 µmol/min/mg, the kcat worked out at 1168 s⁻¹ and the “max S.A. (specific activity)” value amounted to 1896 U/mg.

As for `O=Cc1cccc2ccccc12` [1-naphthalenecarboxaldehyde], in data set [2], the “max S.A. (specific activity)” value was 326 U/mg and the “relative S.A.” value came out at 4.4.

On to `Cc1ccc(C=O)c(C)c1` [2,4-dimethylbenzaldehyde], for which, in data set [2], the Michaelis-Menten constant (Km) turned out to be 0.94 mM, the Vmax was determined as 632.2 µmol/min/mg, the catalytic constant (kcat) was 261.8 s⁻¹ and the “max S.A. (specific activity)” value is reported as 654 U/mg. For the same compound, the “relative S.A.” value in data set [2] amounted to 8.8.

With `OCCS` [2-mercaptoethanol], in data set [3] (setting [7]), the Remaining activity is 95%.

On to `Cc1ccccc1C=O` [2-methylbenzaldehyde], for which, in data set [2], the Km worked out at 3.1 mM, the Vmax was found to be 2564.9 µmol/min/mg, the kcat was found to be 1062.3 s⁻¹ and the “max S.A. (specific activity)” value is listed as 2395 U/mg. In addition, in data set [2], the “relative S.A.” value worked out at 32.2.

Regarding `O=Cc1cccs1` [2-thiophenecarboxaldehyde], in data set [2], the Michaelis-Menten constant (Km) came out at 18.7 mM, the Vmax turned out to be 3522 µmol/min/mg, the kcat turned out to be 1459 s⁻¹ and the “max S.A. (specific activity)” value turned out to be 2403 U/mg. Further, the “relative S.A.” value in data set [2] came to 32.3.

On to `COc1cccc(C=O)c1` [3-methoxybenzaldehyde], for which, in data set [2], the Km turned out to be 5.7 mM, the maximal velocity (Vmax) was 3228.2 µmol/min/mg, the kcat amounted to 1337 s⁻¹ and the “max S.A. (specific activity)” value is reported as 3326 U/mg. The “relative S.A.” value in data set [2] was 44.7.

Consider `Cc1cccc(C=O)c1` [3-methylbenzaldehyde], for which, in data set [2], the “max S.A. (specific activity)” value is listed as 12657 U/mg and the “relative S.A.” value is 170.3.

Consider `O=Cc1ccc(Br)cc1` [4-bromobenzaldehyde], for which, in data set [2], the Km came to 9.5 mM, the Vmax came out at 19940 µmol/min/mg, the kcat amounted to 8259 s⁻¹ and the “max S.A. (specific activity)” value turned out to be 17375 U/mg. Besides, in data set [2], the “relative S.A.” value was found to be 233.8.

`COc1ccc(C=O)cc1` [4-methoxybenzaldehyde]: in data set [2], the Km was determined as 6.7 mM, the Vmax came to 7482 µmol/min/mg, the kcat came out at 3099 s⁻¹ and the “max S.A. (specific activity)” value is on record as 6849 U/mg. The “relative S.A.” value in data set [2] is listed as 92.1.

As for `Cc1ccc(C=O)cc1` [4-methylbenzaldehyde], in data set [2], the “max S.A. (specific activity)” value is reported as 11072 U/mg and the “relative S.A.” value worked out at 149.0.

For the compound `O=[N+]([O-])[O-].[Ag+]` [AgNO3], the Remaining activity in data set [3] (setting [8]) was found to be 68%.

Consider `[Cl][Cd][Cl]` [CdCl2], for which the Remaining activity in data set [3] (setting [8]) was found to be 99%.

For the compound `[Cl-].[Cl-].[Co+2]` [CoCl2], the Remaining activity in data set [3] (pH 7) was 95%.

On to `[Cl][Cr]([Cl])[Cl]` [CrCl3], for which the Remaining activity in data set [3] (setting [8]) came to 88%.

For the compound `O=S(=O)([O-])[O-].[Cu+2]` [CuSO4], the Remaining activity in data set [3] (setting [8]) came to 100%.

On to `O[C@@H](CS)[C@@H](O)CS` [DTT], for which, in data set [3] (setting [8]), the Remaining activity was determined as 100%.

`O=C(O)CN(CCN(CC(=O)O)CC(=O)O)CC(=O)O` [EDTA]: in data set [3] (setting [7]), the Remaining activity stood at 100%.

Regarding `[Cl][Fe]([Cl])[Cl]` [FeCl3], the Remaining activity in data set [3] (setting [8]) was 100%.

As to `[Cl][Hg][Cl]` [HgCl2], the Remaining activity in data set [3] (setting [8]) was determined as 64%.

In the case of `O=S(=O)([O-])[O-].[Mn+2]` [MnSO4], the Remaining activity in data set [3] (setting [8]) was 106%.

In the case of `CCN1C(=O)C=CC1=O` [N-ethylmaleimide], the Remaining activity in data set [3] (setting [8]) worked out at 100%.

As for `[Cl][Ni][Cl]` [NiCl2], in data set [3] (setting [8]), the Remaining activity was found to be 93%.

On to `[Cl][Pb][Cl]` [PbCl2], for which the Remaining activity in data set [3] (0.1 mM, pH 7.0, 20° C., 60 minutes) was 98%; in data set [3] (setting [9]) it was 77%.

For the compound `O=S(=O)([O-])[O-].[Zn+2]` [ZnSO4], the Remaining activity in data set [3] (setting [8]) is on record as 100%.

As to `CCC1(CC)C(=O)NC(=O)NC1=O` [barbital sodium], the Remaining activity in data set [3] (setting [8]) came out at 93%.

On to `CCOC(=O)OC(=O)OCC` [diethylpyrocarbonate], for which, in data set [3] (setting [10]), the remaining activity at 1000 µM was 100%. Further, the remaining activity at 10000 µM in data set [3] (setting [11]) is 79%.

As for `O=C1NC(=O)C(c2ccccc2)(c2ccccc2)N1` [diphenylhydantoin], the Remaining activity in data set [3] (setting [8]) came out at 100%.

For the compound `O=C(O)c1cc(SSc2ccc([N+](=O)[O-])c(C(=O)O)c2)ccc1[N+](=O)[O-]` [dithionitrobenzoic acid], the Remaining activity in data set [3] (setting [8]) was determined as 97%.

Regarding `NN` [hydrazine], the Remaining activity in data set [3] (setting [8]) was 100%.

For `NC(=O)CI` [iodoacetamide], in data set [3] (setting [10]), the remaining activity at 1000 µM was 75%. For the same compound, the remaining activity at 10000 µM in data set [3] (setting [11]) is 28%. Besides, in data set [3] (concentration increased to 10 mM), the “inhibition of the activity of R-ChHNL” value is recorded as “inhibit”.

In the case of `O=C(O)CI` [iodoacetic acid], the “inhibition of the activity of R-ChHNL” value in data set [3] is listed as “inhibit”. In data set [3] (pH 7), the remaining activity at 1000 µM worked out at 52% and the remaining activity at 10000 µM was 18%.

For the compound `CC(=O)N[C@@H](CC(C)C)C(=O)N[C@@H](CC(C)C)C(=O)N[C@H](C=O)CCCNC(=N)N` [leupeptin], in data set [3] (setting [12]), the remaining activity at 100 µg/mL is 86%.

For `O=C(O)c1cc[c]([Hg][Cl])cc1` [p-chloromercuribenzoic acid], in data set [3] (setting [8]), the Remaining activity was 100%.

On to `CC(C)CC(=O)N[C@H](C(=O)N[C@H](C(=O)N[C@@H](CC(C)C)[C@@H](O)CC(=O)N[C@@H](C)C(=O)N[C@@H](CC(C)C)[C@@H](O)CC(=O)O)C(C)C)C(C)C` [pepstatin A] (Isovaleryl-VV[Sta]A[Sta]-OH), for which the Remaining activity in data set [3] (setting [12]) is listed as 89%.

In the case of `O=S(=O)(F)Cc1ccccc1` [phenylmethylsulfonyl fluoride (PMSF), phenylmethylsulfonyl fluoride], the figures for the Remaining activity in data set [3] (setting [9]) and in data set [3] (setting [7]) were 91% and 60%, respectively.

As to `NC(=S)Nc1ccccc1` [phenylthiourea], the Remaining activity in data set [3] (setting [8]) turned out to be 100%.

As for `O=Cc1ccc2c(c1)OCO2` [piperonal], in data set [2], the Km worked out at 5.6 mM, the Vmax came out at 3006.6 µmol/min/mg, the kcat was 1245.2 s⁻¹ and the “max S.A. (specific activity)” value came to 2748 U/mg. In addition, the “relative S.A.” value in data set [2] stood at 37.0.

In the case of `N[C@@H](CCC(=O)N[C@@H](CS)C(=O)NCC(=O)O)C(=O)O` [reduced glutathione], the Remaining activity in data set [3] (pH 7) was 93%.

In the case of R-ChHNL (Chamberlinius hualienensis), in data set [4], the Km is on record as 9.9 mM, the Vmax turned out to be 14000 µmol/min/mg, the kcat was found to be 5800 s⁻¹ and the kcat/Km was found to be 584000 M⁻¹ s⁻¹. For the same compound, in data set [5], the Km came out at 0.65 mM, the Vmax was 313 µmol/min/mg, the kcat is 130 s⁻¹ and the specificity constant (kcat/Km) worked out at 199000 M⁻¹ s⁻¹. In addition, in data set [6], the Km was 5.0 mM, the Vmax is 11900 µmol/min/mg, the kcat was 4940 s⁻¹ and the kcat/Km amounted to 989000 M⁻¹ s⁻¹.

Regarding “avidin: avidin, listed as biotin reagent”, in data set [3] (setting [12]), the Remaining activity amounted to 96%.

In the case of oxidized glutathione, the Remaining activity in data set [3] (0.5 mM, pH 7.0, 20° C., 60 minutes) turned out to be 95%.
